In patent US9995734B2, “Human T cell line assay for evaluating the immunologic identity of glatiramer acetate preparations” (Mylan Inc., priority 2013, dated 2018):

System: Donor 1 COP T-Cell Lines
Assay: Multiplex bead cytokine assay (FlowCytoMix), Donor 1 COP T-cell lines
Format: cell-based, human
Procedure: Culture medium was removed from cultures prepared as for proliferation assay and utilized to measure cytokine production. In most cases culture medium was collected 18-24 hours after mixing T-cells, APC, and stimulating antigen. Cytokine production was measured by ELISA or bead assay. For measuring cytokine production, 100-150 μL culture medium (100 μL if culture was to be continued, otherwise 150 μL) was removed from each well. In some cases, the culture was continued 48 hours, for a total of 72 hours of culture, and the proliferative response measured.
The concentration of multiple cytokines was measured simultaneously using FlowCytoMix™ kits (eBioscience, San Diego Calif.). These are fluorescent bead based assays consisting of beads conjugated to anti cytokine antibodies. Beads specific for each cytokine are distinguished by size and fluorescence at 670 run. Cytokine bound to each bead is detected using a phycoerythrin conjugated antibody so that the fluorescence at 585 nm reflects the concentration of cytokine in the sample. Two kits were utilized which measured different cytokine panels. The TH1/TH2 kit measures IFN-γ, IL-1β, IL-2, IL-4, IL-5, IL-6, IL-8, IL-10, IL-12p70, TNF-α (TNF) and TNF-β (LT). The TH1/TH2/TH9/TH17/TH22 kit measures […], IL-1β, IL-2, IL-4, IL-5, IL-6, IL-9, IL-10, IL-12p70, IL-13, IL-17, IL-22, and TNF-α (TNF). Both kits were used following the manufacturer's instructions.
IL-12p70, IFN-γ, IL-2, IL-10, IL-8, IL-6, IL-5, IL-4, IL-1β, TNF-α (TNF), and TNF-β (LT) secretion were measured in response to stimulation with 1, 3, or 10 μg/mL GMA, or 1, 3, or 10 μg/mL COP, as well as a no-antigen control and an MBP control, in the presence of autologous EBV-transformed B-LCL.

[1] = 222-1C5, 1 μg/mL, 24 hours after Day 56 restimulation
[2] = 222-1C5, 3 μg/mL, 24 hours after Day 56 restimulation
[3] = 222-1C5, 10 μg/mL, 24 hours after Day 56 restimulation
[4] = 222-1C5, 10 μg/mL, Day 34 supernatants
[5] = 222-1H12, 10 μg/mL, Day 34 supernatants
[6] = 222-2B8, 1 μg/mL, 24 hours after Day 56 restimulation
[7] = 222-2B8, 3 μg/mL, 24 hours after Day 56 restimulation
[8] = 222-2B8, 10 μg/mL, 24 hours after Day 56 restimulation
[9] = 222-2D2, 10 μg/mL, Day 34 supernatants
[10] = 222-2D8, 10 μg/mL, Day 34 supernatants
[11] = 222-2E1, 1 μg/mL, 24 hours after Day 56 restimulation
[12] = 222-2E1, 3 μg/mL, 24 hours after Day 56 restimulation
[13] = 222-2E1, 10 μg/mL, 24 hours after Day 56 restimulation
[14] = 222-B11 (so in the source), 1 μg/mL, 24 hours after Day 56 restimulation
[15] = 222-B11 (so in the source), 3 μg/mL, 24 hours after Day 56 restimulation
[16] = 222-B11 (so in the source), 10 μg/mL, 24 hours after Day 56 restimulation

glatiramer acetate [GMA]
IFN-γ [1]: 181 pg/mL | IL-2 [1]: 30 pg/mL | IL-5 [1]: 0 pg/mL | IL-10 [1]: 11 pg/mL | IL-13 [1]: 154 pg/mL | IL-22 [1]: 39 pg/mL | TNF-α [1]: 3 pg/mL | IFN-γ [2]: 325 pg/mL | IL-2 [2]: 83 pg/mL | IL-5 [2]: 0 pg/mL | IL-10 [2]: 38 pg/mL | IL-13 [2]: 316 pg/mL | IL-22 [2]: 101 pg/mL | TNF-α [2]: 72 pg/mL | IFN-γ [3]: 664 pg/mL | IL-2 [3]: 0 pg/mL | IL-5 [3]: 0 pg/mL | IL-10 [3]: 55 pg/mL | IL-13 [3]: 942 pg/mL | IL-22 [3]: 0 pg/mL | TNF-α [3]: 80 pg/mL | IFN-γ [4]: 511.42 pg/mL | IL-1β [4]: 94.12 pg/mL | IL-2 [4]: 185.35 pg/mL | IL-5 [4]: 67.83 pg/mL | IL-8 [4]: <= 0 pg/mL | IL-10 [4]: 77.88 pg/mL | TNF-α [4]: 31.35 pg/mL | TNF-β [4]: 29.94 pg/mL | IFN-γ [5]: 3138 pg/mL | IL-1β [5]: 20 pg/mL | IL-2 [5]: 152 pg/mL | IL-4 [5]: 99 pg/mL | IL-5 [5]: 336 pg/mL | IL-10 [5]: 234 pg/mL | TNF-α [5]: 83 pg/mL | TNF-β [5]: 102 pg/mL | IFN-γ [6]: 1.88 pg/mL | IL-2 [6]: 0 pg/mL | IL-5 [6]: 0 pg/mL | IL-10 [6]: 0 pg/mL | IL-13 [6]: 183.09 pg/mL | IL-22 [6]: 0 pg/mL | TNF-α [6]: 0 pg/mL | IFN-γ [7]: 44.52 pg/mL | IL-2 [7]: 1.6 pg/mL | IL-5 [7]: 78.29 pg/mL | IL-10 [7]: 1.8 pg/mL | IL-13 [7]: 1214.45 pg/mL | IL-22 [7]: 63.98 pg/mL | TNF-α [7]: 0 pg/mL | IFN-γ [8]: 140.65 pg/mL | IL-2 [8]: 0 pg/mL | IL-5 [8]: 400.46 pg/mL | IL-10 [8]: 41 pg/mL | IL-13 [8]: 3162.51 pg/mL | IL-22 [8]: 124.15 pg/mL | TNF-α [8]: 96.57 pg/mL | IFN-γ [9]: 53.75 pg/mL | IL-1β [9]: 103.85 pg/mL | IL-2 [9]: 55.42 pg/mL | IL-5 [9]: 29.13 pg/mL | IL-8 [9]: <= 0 pg/mL | IL-10 [9]: 26.12 pg/mL | TNF-α [9]: 5.35 pg/mL | TNF-β [9]: 5.79 pg/mL | IL-4, IL-6, or IL-12 detected (222-2D8, 222-1H12, 222-1C5, 222-2D2, Day 34 supernatants): Little or no | IFN-γ [10]: 2616 pg/mL | IL-1β [10]: 2420 pg/mL | IL-2 [10]: 52 pg/mL | IL-4 [10]: 41 pg/mL | IL-5 [10]: 1501 pg/mL | IL-10 [10]: 107 pg/mL | TNF-α [10]: 405 pg/mL | TNF-β [10]: 243 pg/mL | IFN-γ [11]: 49.11 pg/mL | IL-2 [11]: 0 pg/mL | IL-5 [11]: 0 pg/mL | IL-10 [11]: 0 pg/mL | IL-13 [11]: 146.02 pg/mL | IL-22 [11]: 21.77 pg/mL | TNF-α [11]: 9.36 pg/mL | IFN-γ [12]: 162.68 pg/mL | IL-2 [12]: 0 pg/mL | IL-5 [12]: 0 pg/mL | IL-10 [12]: 7.1 pg/mL | IL-13 [12]: 1050.77 pg/mL | IL-22 [12]: 25.71 pg/mL | TNF-α [12]: 65.44 pg/mL | IFN-γ [13]: 349.76 pg/mL | IL-2 [13]: 0 pg/mL | IL-5 [13]: 128.4 pg/mL | IL-10 [13]: 16.33 pg/mL | IL-13 [13]: 2036.36 pg/mL | IL-22 [13]: 0 pg/mL | TNF-α [13]: 170.24 pg/mL | IFN-γ [14]: 0 pg/mL | IL-2 [14]: 0 pg/mL | IL-5 [14]: 0 pg/mL | IL-10 [14]: 1.3 pg/mL | IL-13 [14]: 29.41 pg/mL | IL-22 [14]: 42.51 pg/mL | TNF-α [14]: 0 pg/mL | IFN-γ [15]: 0 pg/mL | IL-2 [15]: 0 pg/mL | IL-5 [15]: 0 pg/mL | IL-10 [15]: 0 pg/mL | IL-13 [15]: 133.55 pg/mL | IL-22 [15]: 51.87 pg/mL | TNF-α [15]: 0 pg/mL | IFN-γ [16]: 37.79 pg/mL | IL-2 [16]: 0 pg/mL | IL-5 [16]: 94.56 pg/mL | IL-10 [16]: 0.4 pg/mL | IL-13 [16]: 1563.22 pg/mL | IL-22 [16]: 0 pg/mL | TNF-α [16]: 0 pg/mL | IFN-γ production (Line 105 (so in the source), Table 14 = 222-1C5, after appropriate dilution of supernatants): comparable amounts
